According to patent US20250197865A1, “PHARMACEUTICAL COMPOSITION FOR TREATMENT OR PREVENTION OF FIBROTIC DISEASE” (KYUSHU UNIVERSITY, NATIONAL UNIVERSITY CORPORATION, priority 2022, published 2025):

Legend:
[1] = tested on: SMAD3 mRNA; test: si Smad3 transfection of myofibroblasts from carbon tetrachloride-induced fibrotic liver, SMAD3 mRNA; format: cell-based, mouse; settings: myofibroblasts from CCl4 liver fibrosis model; versus si Ctrl; FIG. 26c
Protocol: The mRNA expression levels of P4HA3 etc. in the examples of the present specification were quantified as follows. The concentration of purified RNA was determined using a microspectrophotometer DS-11 (DeNovix), and reverse transcription to cDNA was performed using a High Capacity cDNA Reverse Transcription Kit (Applied Biosystems). Quantification of mRNA was performed according to the protocol of Luna Universal qPCR Master Mix (New England BioLabs), with DNA polymerase activation at 95° C. for 60 seconds, followed by 45 cycles of cDNA denaturation at 95° C. for 15 seconds and extension at 60° C. for 30 seconds. Analysis was performed by the AACt method using GAPDH as an internal standard. Mouse Cyp7al probe was purchased from Applied Biosystems. Primers and probes for mouse α-smooth muscle actin (α-SMA), CD68, 1α1 collagen (Col1α1), 1α2 collagen (Col1α2), 1α3 collagen (Col1α3), 6α1 collagen (Col6α1), 8α1 collagen (Co81α1), GAPDH (glyceraldehyde-3-phosphate dehydrogenase), heat shock protein 47 (Hsp47), prolyl 4-hydroxylase alphal subunit (P4HA1), prolyl 4-hydroxylase alpha2 subunit (P4HA2), and prolyl 4-hydroxylase alpha3 subunit (P4HA3) were purchased from Sigma-Aldrich.
Hepatic stellate cells, which are involved in liver fibrosis, are known to be activated by TGFβ (Fabregat, I. et al., FEBS J., 283:2219-2232 (2016)). […]

[2] = tested on: mRNA expression of fibrosis-related factors (collagens, elastin) in myofibroblasts; test: siRNA treatment of myofibroblasts from carbon tetrachloride-induced fibrotic liver, fibrosis-related factor mRNA by real-time RT-PCR; format: cell-based, mouse; settings: myofibroblasts from CCl4 liver fibrosis model; si Smad3 versus si Ctrl; P4HA3, Col1α1, Col1α2, Col3α1; FIG. 26c

## si Smad3: siRNA for mouse SMAD3, SEQ ID NOs: 14 and 15; ThermoFisher Scientific catalog 4390771, Assay ID s69495 (chain 1 GGAATTTGCTGCCCTCCTATT; chain 2 TAGGAGGGCAGCAAATTCCCT; listed as DNA, chemistry not given here)
[1]
  mRNA expression of SMAD3: inhibits
[2]
  mRNA expression of fibrosis-related factors including P4HA3: suppressed
